Data as given in PubChem BioAssay (NCI).
Where “and” joins values, the source holds several entries; their conditions need not be identical. Identical values can stand only once.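 Five compound concentrations were applied to cells in 96-well plates for 48 hours; endpoints were derived by simple linear interpolation of the resulting dose-response curve. At the GI50, growth is halved. At the TGI there is no net growth.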

Assays:
Test in all cases: growth of human tumour cells (NCI), 48 h
ACHN renal = test system: ACHN renal
CCRF-CEM leukemia = test system: CCRF-CEM leukemia
HL-60(TB) leukemia = test system: HL-60(TB) leukemia
HOP-92 NSCLC = test system: HOP-92 NSCLC
HT29 colon = test system: HT29 colon
IGROV1 ovarian = test system: IGROV1 ovarian
NCI-H23 lung = test system: NCI-H23 lung
SF-295 CNS = test system: SF-295 CNS
SK-MEL-2 melanoma = test system: SK-MEL-2 melanoma
SK-MEL-28 melanoma = test system: SK-MEL-28 melanoma

Row | Structure (SMILES) | GI50 (ACHN renal) | TGI (ACHN renal) | GI50 (CCRF-CEM leukemia) [nM] | TGI (CCRF-CEM leukemia) | GI50 (HL-60(TB) leukemia) | TGI (HL-60(TB) leukemia) | GI50 (HOP-92 NSCLC) | TGI (HOP-92 NSCLC) | GI50 (HT29 colon) | TGI (HT29 colon) | GI50 (IGROV1 ovarian) | TGI (IGROV1 ovarian) | GI50 (NCI-H23 lung) | TGI (NCI-H23 lung) | GI50 (SF-295 CNS) | TGI (SF-295 CNS) | GI50 (SK-MEL-2 melanoma) | TGI (SK-MEL-2 melanoma) | GI50 (SK-MEL-28 melanoma) | TGI (SK-MEL-28 melanoma)
1 | CCn1cc(-c2ccnc3[nH]c(-c4cccc(CN(C)C)c4)cc23)c(-c2ccc(NC(=O)N(C)C)cc2)n1 | 1.73 µM and 2.45 µM | 10.2 µM and > 10 µM | < 10 | 51.6 µM | 1.46 µM and 0.863 µM | 8.3 µM and > 10 µM | 338 nM and 294 nM | 5.2 µM and 2.99 µM | 1890 nM and 1400 nM | 22.6 µM and > 10 µM | 3.47 µM and 1.9 µM | 33.2 µM and > 10 µM | 2100 nM and 2450 nM | 17.2 µM and > 10 µM | 484 nM and 408 nM | 11.7 µM and > 10 µM | 2430 nM and 2190 nM | 9.87 µM and > 10 µM | 3.45 µM and > 10 µM | 17.1 µM and > 10 µM
2 | COc1ccc(CNc2c3ccccc3nc3ccccc23)cc1F | 3.03 µM | 11.3 µM | 3810 | 35.6 µM | 3.37 µM | 10.4 µM | 1960 nM | 7.61 µM | 2580 nM | 10.3 µM | 2.82 µM | 10.4 µM | 2740 nM | 12.9 µM | 2680 nM | 10.4 µM | 3450 nM | 13.4 µM | 3.84 µM | 13.9 µM
3 | COc1ccc(/C=C\c2cc(OC)c(OC)c(OC)c2)cc1OCC(=O)O |  | > 100 µM |  | > 100 µM |  | 23.8 µM |  | 55.7 µM |  | > 100 µM |  | > 100 µM |  | 12.5 µM |  | 35.8 µM |  | > 53.9 µM |  | > 100 µM
4 | Cc1cccc(NC2=C(Cl)C(=O)c3nc(C)ccc3C2=O)c1 | 1.24 µM | 2.53 µM | 2290 | > 100 µM | 2.14 µM | 5.8 µM | 1660 nM | 3.27 µM | 2940 nM | 11.9 µM | 1.18 µM | 2.6 µM | 512 nM | 2.13 µM | 1490 nM | 2.96 µM | 1930 nM | 4.19 µM | 1.71 µM | 3.14 µM
5 | Cc1cc2c(cc1C)[n+](=O)cc(C(=O)C/C(=N/NC(=S)NN)C(=O)Nc1cccc(C(F)(F)F)c1)n2[O-] |  | > 100 µM |  | > 100 µM |  | > 100 µM |  | > 100 µM |  | > 100 µM |  | > 100 µM |  | > 100 µM |  | > 100 µM |  | > 100 µM |  | > 100 µM
6 | CCN(Cc1c(F)cccc1OC)c1ccc(CO)c(Cl)c1 | 16.8 µM | 44.6 µM | 20900 | > 79.1 µM | 13.2 µM | 43.3 µM | 933 nM | 10 µM | 1470 nM | 18.9 µM | < 0.036 µM |  | 12500 nM | 39.2 µM | 70.7 nM | 1.88 µM | 2390 nM | 21.7 µM | 14.7 µM | 34.3 µM
7 | O=[N+]([O-])c1ccccc1N=Nc1c(O)[nH]c2c(Cl)cc(Cl)cc12 |  | 46.8 µM |  | > 100 µM |  | > 93 µM |  | > 68.2 µM |  | > 100 µM |  | > 100 µM |  | > 100 µM |  | > 61 µM |  | > 74.3 µM |  | > 100 µM
8 | CCCCCCCC(=O)OCC1OC(n2cc(F)c(=O)[nH]c2=O)C(N)C(OC(=O)CCCCCCC)C1O (centres undefined) |  | 37.9 µM |  | 40.4 µM |  | 42.3 µM |  | 34.3 µM |  | 33.4 µM |  | 47.7 µM |  | 35.9 µM |  | 31.3 µM |  | 38.5 µM |  | 34.1 µM
9 | O=c1cccc(C#CC#C[C@@H]2O[C@H]2CO)o1 | 0.845 µM | 2.08 µM | 192 |  | 3.12 µM | > 100 µM | 1060 nM | 3.34 µM | 429 nM | 2.53 µM | 0.183 µM | 0.339 µM | 230 nM | 0.45 µM | 2640 nM | 9.03 µM | 2200 nM |  | 0.27 µM | 1.36 µM
10 | NNc1ncnc2nc[nH]c12 | 4.78 µM | > 94 µM | 2970 | > 100 µM | 3.53 µM | 21.5 µM | 4000 nM | 55.4 µM | 4360 nM | > 100 µM | 3.56 µM | > 55.1 µM | 10100 nM | > 100 µM | 3950 nM | > 72.6 µM | 9270 nM | 97.4 µM | 34.6 µM | > 100 µM
11 | C=CC12CCN(CC1)C(C(O)c1ccnc3ccc(OC)cc13)C2 (centres undefined) | > 100 µM | > 100 µM | > 100000 | > 100 µM | > 100 µM | > 100 µM | 35200 nM | > 100 µM | 61900 nM | > 100 µM | > 100 µM | > 100 µM | > 100000 nM | > 100 µM | > 100000 nM | > 100 µM | > 100000 nM | > 100 µM | 79.8 µM | > 100 µM
12 | COc1ccc2c(=O)oc3c(OC)cc(CCN(C)C)c4c(=O)oc1c2c34 | 14.8 µM and 5.71 µM | 28.1 µM and 11.8 µM |  | 3.5 µM and 3.06 µM | 10.7 µM and 1.84 µM | 26.5 µM and 10.2 µM | 21500 nM and 8250 nM | 39.6 µM and 15.2 µM | 13700 nM and 5510 nM | 27 µM and 12.6 µM | 15.9 µM and 3.03 µM | 29.6 µM and 11.5 µM |  | 32.7 µM and 17.5 µM | 15000 nM and 6990 nM | 28.5 µM and 14.3 µM |  | 33.1 µM and 29 µM | 4.25 µM and 1.01 µM | 15.6 µM and 2.2 µM
13 | NC(N)=Nc1nc2ccccc2o1 | > 100 µM | > 100 µM | > 100000 | > 100 µM | > 100 µM | > 100 µM | > 100000 nM | > 100 µM | > 100000 nM | > 100 µM | > 100 µM | > 100 µM | > 100000 nM | > 100 µM | > 100000 nM | > 100 µM | > 100000 nM | > 100 µM | > 100 µM | > 100 µM
14 | O=C1C/C(Br)=C\c2ccccc2-c2ccccc21 |  | 4.5 µM |  | 10.4 µM |  | 5.7 µM |  | 5.27 µM |  | 4.72 µM |  | 9.02 µM |  | 9.56 µM |  | 16.9 µM |  | 12.2 µM |  | 2.8 µM
